Test results from patent publication US8252774B2, “5-azaindole bisphosphonates” (Isis Innovation Ltd., priority 2008, dated 2012).

How the values were obtained:
[1] = target: T1, human farnesyl pyrophosphate synthase (FPPS) (Homo sapiens, UniProt P14324); experiment: FPPS inhibition in vitro; assay type: biochemical; settings: recombinant human FPPS
T1 construct: made in house
T1 sequence (P14324 67-419 limits assumed): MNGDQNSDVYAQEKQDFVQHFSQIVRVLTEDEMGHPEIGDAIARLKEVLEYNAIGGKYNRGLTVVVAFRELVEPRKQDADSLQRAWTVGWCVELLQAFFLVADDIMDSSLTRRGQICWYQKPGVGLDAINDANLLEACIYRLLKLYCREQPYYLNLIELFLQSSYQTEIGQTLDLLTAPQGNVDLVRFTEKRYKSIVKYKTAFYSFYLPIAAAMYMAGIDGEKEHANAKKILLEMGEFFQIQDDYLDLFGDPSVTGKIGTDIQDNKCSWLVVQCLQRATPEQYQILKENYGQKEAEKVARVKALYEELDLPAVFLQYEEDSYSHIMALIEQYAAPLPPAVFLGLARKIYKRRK

[2] = HAP affinity: chromatographic profiling on hydroxyapatite column (FPLC); assay type: physicochemical; settings: phosphate buffer gradient 1 mM up to 1000 mM, pH 6.8, determined in triplicate, longer retention = higher mineral affinity

IC50 ([1]; after pre-incubation)	Ki ([1]; final inhibition constant)	Retention time [2]	SMILES
6.6 nM	0.6 nM	6.3 min	O=P(O)(O)C(Cc1c[nH]c2ccncc12)P(=O)(O)O [5-azaindol-3-yl-ethyl-bisphosphonic acid]
–	–	10.33 min	O=P(O)(O)C(O)(Cc1cnc2ccccn12)P(=O)(O)O [Minodronate]
–	–	9.97 min	O=P(O)(O)C(O)(Cc1cccnc1)P(=O)(O)O [Risedronate]
–	–	12.53 min	O=P(O)(O)C(O)(Cn1ccnc1)P(=O)(O)O [Zoledronate]
